According to US9920061B2, “Imidazo[1,5-A]pyrimidinyl carboxamide compounds and their use in the treatment of medical disorders” (Lysosomal Therapeutics Inc., priority 2016, dated 2018):
Converted amounts (≈) assume the structure as drawn. Like-named read-outs stand apart in the source and are kept apart here.

Assays:
[1] = biological target: T1, glucocerebrosidase (Gcase) (Homo sapiens, UniProt P04062); assay: Glucocerebrosidase (Gcase) activation assay, 4-methylumbelliferyl-beta-D-glucopyranoside substrate, with saposin C; assay type: biochemical
T1 sequence (P04062 40-536): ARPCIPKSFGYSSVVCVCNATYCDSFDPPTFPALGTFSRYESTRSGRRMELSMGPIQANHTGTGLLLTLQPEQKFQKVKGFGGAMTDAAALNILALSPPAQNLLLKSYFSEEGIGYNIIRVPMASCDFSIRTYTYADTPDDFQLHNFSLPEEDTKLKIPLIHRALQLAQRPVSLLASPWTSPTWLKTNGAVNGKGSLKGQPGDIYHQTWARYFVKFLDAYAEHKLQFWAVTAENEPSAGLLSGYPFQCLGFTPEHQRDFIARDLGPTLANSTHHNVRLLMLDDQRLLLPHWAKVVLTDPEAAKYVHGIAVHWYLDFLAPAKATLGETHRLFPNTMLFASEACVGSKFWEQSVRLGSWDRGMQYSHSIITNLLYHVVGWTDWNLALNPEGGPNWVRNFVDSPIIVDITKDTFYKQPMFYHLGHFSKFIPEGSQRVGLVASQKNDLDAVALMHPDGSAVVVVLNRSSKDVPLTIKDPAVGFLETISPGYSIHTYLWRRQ
Method in brief: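 Micellar buffer (176 mM K2HPO4/50 mM citric acid, pH 4.7; 0.32 mM triton, 0.37 mol % PS) holding 10 nM GCase and 100 nM saposin C, pre-incubated with compound 30 min at room temperature. Substrate final 2 mM before mixing; 15 min reaction, glycine pH 12.5 stop, fluorescence 365/440 nm. Screened at 1.0 and 0.1 μM; 8-point, 3-fold dose response.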

[2] = Compound solubility in water; assay type: physicochemical
[3] = 0.1 μM test compound, read-out: Percent Gcase Activation 0.1 μM Test Compound
[4] = 1 μM test compound, read-out: Percent Gcase Activation 1 μM Test Compound
[5] = test compound at 0.1 μM, read-out: Percent Gcase Activation, 0.1 μM Test Compound
[6] = test compound at 1.0 μM, read-out: Percent Gcase Activation, 1 μM Test Compound

Row | Compound | activation at 0.1 µM [1, 3] [%] | activation at 1 µM [1, 4] [%] | solubility [2] [µg/mL] | activation at 0.1 µM [1, 5] [%] | activation at 1 µM [1, 6] [%] | solubility ([2]; in water) [µg/mL]
1 | CCc1cc(-c2cccc(OC)n2)nc2c(C(=O)NC(C3CC3)C(F)(F)F)ncn12 (stereo not drawn) [III-149] | > 20 | > 60 | 0.7 (≈ 1.67 µM) |  |  | 
2 | Cc1cc(-c2cc(F)cc(C#N)c2)nc2c(C(=O)NC(C)(C)C)ncn12 [IV-111] |  |  |  | 10 to 20 | > 60 | 0.9 (≈ 2.56 µM)
3 | Cc1cc(NC(=O)c2ccccc2)nc2c(C(=O)NC(C3CC3)C(F)(F)F)ncn12 (stereo not drawn) [IV-6] |  |  |  | < 10 | 30 to 60 | 15.1 (≈ 36.2 µM)
4 | COc1cccc(-c2cc(C)n3cnc(C(=O)NC(C4CC4)C(F)(F)F)c3n2)c1C#N (stereo not drawn) [IV-69] |  |  |  | > 20 | > 60 | 1.3 (≈ 3.03 µM)
5 | Cc1cc(-c2cncs2)nc2c(C(=O)NC(C)(C)C3CC3)ncn12 [III-58] | < 10 | > 60 | 44.4 (≈ 130 µM) |  |  | 
6 | Cc1cc(Cl)nc2c(C(=O)NC(c3ccc(F)cc3)C(F)(F)F)ncn12 (stereo not drawn) [III-24] | 10 to 20 | > 60 | 10.4 (≈ 26.9 µM) |  |  | 
7 | Cc1cc(-n2cccn2)nc2c(C(=O)NC(C)(C)C3CC3)ncn12 [III-70] | < 10 | 30 to 60 | 10.5 (≈ 32.4 µM) |  |  | 
8 | Cc1cc(-c2cc(F)cc(C#N)c2)nc2c(C(=O)NC(C3CC3)C(F)(F)F)ncn12 (stereo not drawn) [IV-110] |  |  |  | > 20 | > 60 | 1.2 (≈ 2.88 µM)
9 | Cc1cc(-c2ccncc2)nc2c(C(=O)NC(C)(C)C3CC3)ncn12 [III-93] | < 10 | < 30 | 18.8 (≈ 56.1 µM) |  |  | 
10 | CCCO[C@H]1CC[C@H](NC(=O)c2ncn3c(C)cc(-c4cccnc4)nc23)CC1 [III-65] | < 10 | < 30 | 15.4 (≈ 39.1 µM) |  |  | 
11 | Cc1cc(-c2ccc3nncn3c2)nc2c(C(=O)NC(C3CC3)C(F)(F)F)ncn12 (stereo not drawn) [IV-43] |  |  |  | < 10 | < 30 | 17.5 (≈ 42.1 µM)
12 | CCCCO[C@H]1C[C@H]2CC[C@@H](C1)[C@@H]2NC(=O)c1ncn2c(COC)cc(C)nc12 [IV-3] |  |  |  | < 10 | 30 to 60 | 15.3 (≈ 38.2 µM)
13 | Cc1cc(-c2cccnc2)nc2c(C(=O)N[C@H]3CC[C@H](OC(C)(C)C)CC3)ncn12 [III-64] | < 10 | < 30 | 32.2 (≈ 79 µM) |  |  | 
14 | Cc1cc(-c2cccc(-c3ncco3)c2)nc2c(C(=O)NC(C3CC3)C(F)(F)F)ncn12 (stereo not drawn) [IV-60] |  |  |  | > 20 | > 60 | 2.3 (≈ 5.21 µM)
15 | Cc1cc(-c2cc(F)cc(F)c2)nc2c(C(=O)NC(C)(C)C)ncn12 [III-125] | > 20 | > 60 | 0.2 (≈ 0.581 µM) |  |  | 
16 | Cc1cc(-c2ccccc2)nc2c(C(=O)NC(C)C3CC3)ncn12 (stereo not drawn) [III-86] | > 20 | > 60 | 13.1 (≈ 40.9 µM) |  |  | 
17 | COc1ccccc1[C@H](C)NC(=O)c1ncn2c(C)cc(-c3ccc(F)cc3)nc12 [III-30] | 10 to 20 | > 60 | 1.3 (≈ 3.21 µM) |  |  | 
18 | Cc1cc(C)n2cnc(C(=O)NC(C3CCCCC3)C(F)(F)F)c2n1 (stereo not drawn) [III-15] | > 20 | > 60 | 4 (≈ 11.3 µM) |  |  | 
19 | COCCOc1cc(C)n2cnc(C(=O)N[C@@H](C)C3CC3)c2n1 [III-128] | < 10 | < 30 | 34.1 (≈ 107 µM) |  |  | 
20 | Cc1cc(-c2cccc3ncoc23)nc2c(C(=O)NC(C3CC3)C(F)(F)F)ncn12 (stereo not drawn) [III-160] | > 20 | > 60 | 8.9 (≈ 21.4 µM) |  |  | 
21 | CCOc1cccc(-c2cc(C)n3cnc(C(=O)N[C@@H](C)C4CC4)c3n2)n1 [III-155] | < 10 | 30 to 60 | 1.7 (≈ 4.65 µM) |  |  | 
22 | Cc1cc(N2CCCC(F)(F)C2)nc2c(C(=O)NC(C3CC3)C(F)(F)F)ncn12 (stereo not drawn) [III-138] | > 20 | > 60 | 17.2 (≈ 41.2 µM) |  |  | 
23 | CO[C@H]1CC[C@H](C(C)(C)NC(=O)c2ncn3c(C)cc(-c4cccnc4)nc23)CC1 [III-73] | < 10 | < 30 | 19.3 (≈ 47.4 µM) |  |  | 
24 | C#CC(C)(C)NC(=O)c1ncn2c(C)cc(-c3cccc4nccn34)nc12 [IV-24] |  |  |  | < 10 | < 30 | 2.5 (≈ 6.98 µM)
25 | Cc1cc(-c2nccs2)nc2c(C(=O)NC(C)(C)C3CC3)ncn12 [III-61] | 10 to 20 | > 60 | 5.5 (≈ 16.1 µM) |  |  | 
26 | Cc1cc(-n2ccc(Cl)n2)nc2c(C(=O)NC(C3CC3)C(F)(F)F)ncn12 (stereo not drawn) [III-143] | 10 to 20 | > 60 | 4.2 (≈ 10.5 µM) |  |  | 
27 | Cc1cc(-c2cnsc2)nc2c(C(=O)NC(C)(C)C3CC3)ncn12 [III-59] | 10 to 20 | > 60 | 2.1 (≈ 6.15 µM) |  |  | 

Further lines, results first:

Row | activation at 0.1 µM [1, 3] [%] | activation at 1 µM [1, 4] [%] | solubility [2] [µg/mL] | activation at 0.1 µM [1, 5] [%] | activation at 1 µM [1, 6] [%] | solubility ([2]; in water) [µg/mL] | Compound
28 | < 10 | < 30 | 32.8 (≈ 97.2 µM) |  |  |  | Cc1cc(Oc2cccnc2)nc2c(C(=O)N[C@@H](C)C3CC3)ncn12 [III-122]
29 |  |  |  | > 20 | > 60 | 0.5 (≈ 1.1 µM) | Cc1cc(-c2cccc(-c3ncncn3)c2)nc2c(C(=O)NC(C3CC3)C(F)(F)F)ncn12 (stereo not drawn) [IV-79]
30 |  |  |  | > 20 | > 60 | 0.5 (≈ 1.37 µM) | Cc1cc(-c2cccc3c2OCO3)nc2c(C(=O)N[C@@H](C)C3CC3)ncn12 [IV-30]
31 |  |  |  | 10 to 20 | > 60 | 25.6 (≈ 53.5 µM) | CCc1cc(N2CCN(CC(F)(F)F)C2=O)nc2c(C(=O)NC(C3CC3)C(F)(F)F)ncn12 (stereo not drawn) [IV-90]
32 | > 20 | > 60 | 3.6 (≈ 10.1 µM) |  |  |  | Cc1cc(-c2cccc(Cl)c2)nc2c(C(=O)N[C@@H](C)C3CC3)ncn12 [III-110]
33 | < 10 | < 30 | 31.1 (≈ 96.8 µM) |  |  |  | Cc1cc(-c2cccnc2)nc2c(C(=O)NC(C)C3CC3)ncn12 (stereo not drawn) [III-43]
34 |  |  |  | > 20 | > 60 | 1.3 (≈ 3.31 µM) | Cc1cc(-c2ccc3c(c2)OCO3)nc2c(C(=O)N[C@H](C)C(F)(F)F)ncn12 [IV-77]
35 |  |  |  | > 20 | > 60 | 1.2 (≈ 3.03 µM) | COc1cc(F)cc(-c2cc(C)n3cnc(C(=O)NC(C)C(F)(F)F)c3n2)c1 (stereo not drawn) [IV-57]
36 | < 10 | < 30 | 28.1 (≈ 67.3 µM) |  |  |  | Cc1cc(-c2ccccc2C(N)=O)nc2c(C(=O)NC(C3CC3)C(F)(F)F)ncn12 (stereo not drawn) [III-154]
37 | < 10 | 30 to 60 | 1.9 (≈ 5.08 µM) |  |  |  | Cc1cc(-c2cnc(Cl)c(F)c2)nc2c(C(=O)N[C@@H](C)C3CC3)ncn12 [III-107]
38 | > 20 | > 60 | 1.6 (≈ 4.54 µM) |  |  |  | Cc1cc(-c2ccc(F)cc2)nc2c(C(=O)NC(C)(C)C3CC3)ncn12 [III-26]
39 | < 10 | > 60 | 19.7 (≈ 54.2 µM) |  |  |  | Cc1cc(-c2ccncc2)nc2c(C(=O)NC(CC(C)C)C3CC3)ncn12 (stereo not drawn) [III-28]
40 |  |  |  | > 20 | > 60 | 1.1 (≈ 2.65 µM) | Cc1cc(-c2cccc3ncoc23)nc2c(C(=O)N[C@H](C3CC3)C(F)(F)F)ncn12 [IV-17]
41 | < 10 | 30 to 60 | 5 (≈ 13.3 µM) |  |  |  | Cc1cc(-c2cccnc2)nc2c(C(=O)N[C@@H](C)c3ccccc3F)ncn12 [III-45]
